The assay has as its target T1, human calcium-sensing receptor (CaSR) (Homo sapiens, UniProt P41180).
T1 construct: host or cells: HEK293
T1 sequence (P41180 20-1078): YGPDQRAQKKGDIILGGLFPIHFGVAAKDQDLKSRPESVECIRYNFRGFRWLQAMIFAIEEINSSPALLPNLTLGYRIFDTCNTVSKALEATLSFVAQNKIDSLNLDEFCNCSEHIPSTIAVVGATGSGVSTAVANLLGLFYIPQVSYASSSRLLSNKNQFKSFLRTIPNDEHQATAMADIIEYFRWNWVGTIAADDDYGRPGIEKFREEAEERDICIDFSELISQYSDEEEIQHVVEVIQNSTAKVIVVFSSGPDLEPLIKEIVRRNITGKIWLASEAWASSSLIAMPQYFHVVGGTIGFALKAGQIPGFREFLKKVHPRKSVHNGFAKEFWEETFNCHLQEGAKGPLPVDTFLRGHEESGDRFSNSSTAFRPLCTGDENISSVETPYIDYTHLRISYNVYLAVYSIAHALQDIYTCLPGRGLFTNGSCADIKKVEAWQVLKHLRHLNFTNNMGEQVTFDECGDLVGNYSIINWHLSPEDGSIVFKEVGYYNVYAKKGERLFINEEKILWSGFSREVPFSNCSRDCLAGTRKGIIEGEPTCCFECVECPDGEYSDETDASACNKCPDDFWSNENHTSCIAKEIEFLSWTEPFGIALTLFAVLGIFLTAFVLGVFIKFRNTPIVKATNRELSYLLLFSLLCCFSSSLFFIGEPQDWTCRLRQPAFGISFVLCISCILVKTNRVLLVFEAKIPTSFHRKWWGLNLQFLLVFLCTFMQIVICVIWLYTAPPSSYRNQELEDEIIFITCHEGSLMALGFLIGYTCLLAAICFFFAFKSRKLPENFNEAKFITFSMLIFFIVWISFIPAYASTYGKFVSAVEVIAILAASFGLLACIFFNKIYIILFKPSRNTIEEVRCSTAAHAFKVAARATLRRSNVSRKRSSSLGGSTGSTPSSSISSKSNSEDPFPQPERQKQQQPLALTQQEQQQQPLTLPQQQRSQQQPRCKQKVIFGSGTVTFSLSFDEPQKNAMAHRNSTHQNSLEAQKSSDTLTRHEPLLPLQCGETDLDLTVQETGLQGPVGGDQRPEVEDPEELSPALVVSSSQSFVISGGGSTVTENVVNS
Nature of the assay: Agonist activity on human calcium-sensing receptor (IP-One HTRF in stably transfected HEK293/CaSR cells). Format: cell-based. In a few lines:
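HEK293 cells stably expressing CaSR stimulated 60 min at 37 °C with compounds in buffer containing 1.2 mM CaCl2, 0.5 mM MgCl2 and 50 mM LiCl. IP-One accumulation measured by HTRF (665/620 nm ratio); EC50 from four-parameter fit.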

Setting [1] is: HEK293/CaSR cells, IP-One production, 60 min at 37° C., CaCl2 1.2 mM, read-out: EC50 for calcium-sensing receptor.

SMILES strings stand for the structures. Where two headings read alike, the source gives them in different places. Square brackets hold non-standard residues; d marks the D form. Peptide text beside a SMILES is read from it. * marks the point of attachment. Cys(free,S-linked) = N[C@@H](CS*)C(=O)O; d2Thi = N[C@H](Cc1cccs1)C(=O)O; dAbu = CC[C@@H](N)C(=O)O

As to `CC[C@@H](NC(=O)[C@@H](CCCNC(=N)N)NC(=O)[C@@H](CCCNC(=N)N)NC(=O)[C@@H](CSSC[C@H](N)C(=O)O)NC(C)=O)C(=O)N[C@H](CCCNC(=N)N)C(=O)N[C@H](CO)C(=O)N[C@H](CCCNC(=N)N)C(N)=O` [Compound 31, Ac-c(C)-r-r-(D-Abu)-r-s-r-NH2] (Ac-[dC](Cys(free,S-linked))[dR][dR][dAbu][dR][dS][dR]-NH2), under setting [1], the EC50 was found to be 5.93 µM.
On the same count and under the same terms, under `CC(=O)N[C@H](CSSC[C@H](N)C(=O)O)C(=O)N[C@H](CCCNC(=N)N)C(=O)N[C@H](CCCNC(=N)N)C(=O)N[C@H](Cc1cccs1)C(=O)N[C@H](CCCNC(=N)N)C(=O)N[C@H](C)C(=O)N[C@H](CCCNC(=N)N)C(N)=O` [Compound 13, Ac-c(C)-r-r-(D-2-Thi)-r-a-r-NH2] (Ac-[dC](Cys(free,S-linked))[dR][dR][d2Thi][dR][dA][dR]-NH2) stands 1.21 µM.
For `CC[C@@H](NC(=O)[C@@H](CCCNC(=N)N)NC(=O)[C@@H](CCCNC(=N)N)NC(=O)[C@@H](CSSC[C@H](N)C(=O)O)NC(C)=O)C(=O)N[C@H](CCCNC(=N)N)C(=O)N[C@H](C)C(=O)N[C@H](CCCNC(=N)N)C(N)=O` [Compound 17, Ac-c(C)-r-r-(D-Abu)-r-a-r-NH2] (Ac-[dC](Cys(free,S-linked))[dR][dR][dAbu][dR][dA][dR]-NH2), the 50% effective concentration (EC50) stood at 6.28 µM.
